In patent publication US20230364070A1, “PYRROLO[3,2-C]PYRIDIN-4-ONE DERIVATIVES USEFUL IN THE TREATMENT OF CANCER” (Scorpion Therapeutics, Inc., priority 2020, published 2023) one finds IC50 data, which are given here for 25 compounds.

Common to all, as to format: cell-based
Experiment [1] has as its target T1, Ba/F3 cells with EGFR exon 20 ASV Ins V769_D770 (Homo sapiens, UniProt P00533, INS769ASV).
T1 construct: expressed in transfected cells; host or cells: Ba/F3 (murine pro-B cells), retroviral transduction, puromycin selection, IL3-independent pool
The experiment can be described thus: EGFR activity: Ba/F3 cell viability (CellTiter-Glo, 72 h), EGFR exon 20 ASV insertion. Conditions: EGFR exon 20 ASV Ins V769_D770, cell viability, read-out: BaF3 ASV IC50. For orientation: In ATP-based viability assays light output follows the ATP content of the culture.

The target of a further experiment is T2, pEGFR in CUTO14 cells (Homo sapiens, UniProt P00533, DUP767-769).
T2 construct: endogenous in cells; host or cells: CUTO14 cells
T2 sequence (P00533 with tags, fused parts or gaps DUP767-769): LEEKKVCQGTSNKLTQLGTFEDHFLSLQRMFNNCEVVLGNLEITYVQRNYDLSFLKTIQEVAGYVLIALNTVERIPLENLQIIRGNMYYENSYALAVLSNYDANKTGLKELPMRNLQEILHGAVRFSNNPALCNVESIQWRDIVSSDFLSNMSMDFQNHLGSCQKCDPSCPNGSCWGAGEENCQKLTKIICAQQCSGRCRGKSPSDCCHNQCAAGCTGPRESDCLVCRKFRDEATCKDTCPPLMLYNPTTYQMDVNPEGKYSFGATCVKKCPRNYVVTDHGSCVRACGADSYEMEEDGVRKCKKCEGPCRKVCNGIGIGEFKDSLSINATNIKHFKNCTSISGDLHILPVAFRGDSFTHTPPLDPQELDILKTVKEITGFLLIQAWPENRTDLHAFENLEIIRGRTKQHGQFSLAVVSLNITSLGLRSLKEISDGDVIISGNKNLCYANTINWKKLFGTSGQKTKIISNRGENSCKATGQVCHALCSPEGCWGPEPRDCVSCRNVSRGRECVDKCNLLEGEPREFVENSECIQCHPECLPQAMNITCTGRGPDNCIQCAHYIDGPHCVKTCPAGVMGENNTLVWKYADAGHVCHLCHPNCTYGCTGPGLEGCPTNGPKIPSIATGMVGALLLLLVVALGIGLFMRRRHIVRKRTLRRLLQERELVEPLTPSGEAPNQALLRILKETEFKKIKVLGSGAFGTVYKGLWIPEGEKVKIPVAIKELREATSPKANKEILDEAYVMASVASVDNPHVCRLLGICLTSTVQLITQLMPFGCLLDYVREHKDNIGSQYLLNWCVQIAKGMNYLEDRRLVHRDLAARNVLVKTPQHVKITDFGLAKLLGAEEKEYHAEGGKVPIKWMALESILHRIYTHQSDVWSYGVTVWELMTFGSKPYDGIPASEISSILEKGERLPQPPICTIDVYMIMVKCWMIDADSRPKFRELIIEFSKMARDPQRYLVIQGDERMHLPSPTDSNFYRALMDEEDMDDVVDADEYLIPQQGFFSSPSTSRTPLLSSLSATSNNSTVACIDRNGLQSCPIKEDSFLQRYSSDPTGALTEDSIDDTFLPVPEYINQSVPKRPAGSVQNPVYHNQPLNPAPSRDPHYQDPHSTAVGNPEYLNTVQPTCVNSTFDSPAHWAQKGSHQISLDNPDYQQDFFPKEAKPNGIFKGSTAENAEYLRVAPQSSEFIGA
The experiment can be described thus: Inhibitor activity on EGFR phosphorylation (pEGFR AlphaLISA, 2 h), CUTO14 cells. The protocol: CUTO14 cells were obtained from Dr. Robert C. Doebele at the University of Colorado.
Shake 350 rpm for 1 hr in the dark • 3.4 Prepare donor mix under low light conditions prior to use. Dispense 5 μL of donor mix to all the wells. Mix well on the shaker, seal and wrap in aluminum foil and incubate 1.5 hrs at room temperature in the dark • 3.5 Transfer 18.5 μL mixture to OptiPlate 384, and read using an Envision.
In general terms: Bead proximity is the source of the signal in Alpha formats.

The target of the next experiment is T3, Ba/F3 cells with EGFR WT (Homo sapiens, UniProt P00533).
T3 construct: expressed in transfected cells; host or cells: Ba/F3 (murine pro-B cells), retroviral transduction, puromycin selection, maintained with EGF
T3 sequence (P00533 25-1210): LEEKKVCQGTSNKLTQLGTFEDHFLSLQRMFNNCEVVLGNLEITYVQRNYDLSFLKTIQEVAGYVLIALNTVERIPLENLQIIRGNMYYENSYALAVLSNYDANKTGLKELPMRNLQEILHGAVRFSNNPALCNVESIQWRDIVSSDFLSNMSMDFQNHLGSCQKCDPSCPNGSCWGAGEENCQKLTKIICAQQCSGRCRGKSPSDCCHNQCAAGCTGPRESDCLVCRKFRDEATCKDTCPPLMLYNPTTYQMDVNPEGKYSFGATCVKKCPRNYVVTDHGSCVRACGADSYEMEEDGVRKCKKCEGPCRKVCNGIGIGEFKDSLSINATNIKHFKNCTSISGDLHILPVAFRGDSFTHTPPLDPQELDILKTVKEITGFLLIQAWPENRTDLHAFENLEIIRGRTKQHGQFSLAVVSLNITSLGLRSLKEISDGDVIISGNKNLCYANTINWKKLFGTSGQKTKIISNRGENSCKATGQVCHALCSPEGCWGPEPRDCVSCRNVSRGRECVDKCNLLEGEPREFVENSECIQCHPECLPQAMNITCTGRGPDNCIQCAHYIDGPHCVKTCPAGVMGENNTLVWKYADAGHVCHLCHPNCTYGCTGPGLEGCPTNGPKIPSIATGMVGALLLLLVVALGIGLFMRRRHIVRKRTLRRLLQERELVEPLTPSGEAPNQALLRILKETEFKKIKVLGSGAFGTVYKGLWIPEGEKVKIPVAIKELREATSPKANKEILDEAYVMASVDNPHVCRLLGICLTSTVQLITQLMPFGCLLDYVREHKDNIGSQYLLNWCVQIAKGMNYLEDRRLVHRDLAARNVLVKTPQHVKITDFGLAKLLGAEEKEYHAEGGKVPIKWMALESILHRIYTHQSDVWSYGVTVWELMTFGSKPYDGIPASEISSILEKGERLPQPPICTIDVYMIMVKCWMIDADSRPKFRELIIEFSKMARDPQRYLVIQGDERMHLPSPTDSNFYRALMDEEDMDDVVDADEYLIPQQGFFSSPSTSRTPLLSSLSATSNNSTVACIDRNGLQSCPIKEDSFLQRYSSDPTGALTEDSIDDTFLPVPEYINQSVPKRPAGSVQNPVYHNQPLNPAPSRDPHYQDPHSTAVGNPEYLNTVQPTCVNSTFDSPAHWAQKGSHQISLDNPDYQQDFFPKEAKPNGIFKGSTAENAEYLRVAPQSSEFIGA
Nature of the experiment: EGFR activity: Ba/F3 cell viability (CellTiter-Glo, 72 h), EGFR WT. As to conditions: read-out: BaF3 WT IC50.

In experiment [2] the target is T4, Ba/F3 cells with EGFR exon 20 NPG Ins D770_N771 (Homo sapiens, UniProt P00533, INS770NPG).
T4 construct: expressed in transfected cells; host or cells: Ba/F3 (murine pro-B cells), retroviral transduction, puromycin selection, IL3-independent pool
T4 sequence (P00533 with tags, fused parts or gaps INS770NPG): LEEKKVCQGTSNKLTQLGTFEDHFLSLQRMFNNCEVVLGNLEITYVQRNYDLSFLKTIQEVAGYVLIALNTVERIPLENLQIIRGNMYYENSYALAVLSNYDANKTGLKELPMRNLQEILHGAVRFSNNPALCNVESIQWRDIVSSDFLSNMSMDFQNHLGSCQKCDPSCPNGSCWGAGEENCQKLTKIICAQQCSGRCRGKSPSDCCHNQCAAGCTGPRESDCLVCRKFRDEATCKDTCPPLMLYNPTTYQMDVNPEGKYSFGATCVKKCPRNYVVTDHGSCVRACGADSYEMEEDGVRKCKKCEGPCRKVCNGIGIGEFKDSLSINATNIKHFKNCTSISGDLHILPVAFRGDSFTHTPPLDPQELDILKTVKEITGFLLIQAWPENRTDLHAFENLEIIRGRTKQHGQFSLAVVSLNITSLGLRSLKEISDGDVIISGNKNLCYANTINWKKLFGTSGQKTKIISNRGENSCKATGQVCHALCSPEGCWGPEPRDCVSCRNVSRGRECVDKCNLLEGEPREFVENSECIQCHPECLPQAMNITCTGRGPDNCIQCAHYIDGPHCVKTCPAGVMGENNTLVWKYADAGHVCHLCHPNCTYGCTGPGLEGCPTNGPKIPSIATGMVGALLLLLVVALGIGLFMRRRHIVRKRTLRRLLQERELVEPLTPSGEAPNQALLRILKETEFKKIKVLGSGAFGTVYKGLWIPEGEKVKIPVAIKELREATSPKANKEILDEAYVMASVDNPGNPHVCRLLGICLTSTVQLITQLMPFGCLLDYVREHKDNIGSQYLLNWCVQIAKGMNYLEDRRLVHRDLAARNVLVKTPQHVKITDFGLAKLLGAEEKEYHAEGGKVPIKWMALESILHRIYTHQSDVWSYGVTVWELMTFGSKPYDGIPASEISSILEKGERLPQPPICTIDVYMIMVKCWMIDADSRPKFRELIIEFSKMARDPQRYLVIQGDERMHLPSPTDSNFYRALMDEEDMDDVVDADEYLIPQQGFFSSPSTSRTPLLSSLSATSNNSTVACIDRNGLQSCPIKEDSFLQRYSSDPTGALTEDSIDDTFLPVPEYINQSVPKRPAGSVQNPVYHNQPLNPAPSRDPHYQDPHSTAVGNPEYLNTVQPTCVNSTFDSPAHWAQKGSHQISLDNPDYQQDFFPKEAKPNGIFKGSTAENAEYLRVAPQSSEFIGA
Nature of the experiment: EGFR activity: Ba/F3 cell viability (CellTiter-Glo, 72 h), EGFR exon 20 NPG insertion. As to conditions: EGFR exon 20 NPG Ins D770_N771, cell viability, read-out: BaF3 NPG IC50.

Structures are written as SMILES.

T1 sequence (P00533 with tags, fused parts or gaps INS769ASV): as the sequence (P00533 with tags, fused parts or gaps DUP767-769) above

The IC50 is the point on the concentration scale where inhibition reaches its midpoint. Regarding `COc1c(Cl)cccc1Nc1c(-c2ccncc2OC[C@]2(C)CCN2C(=O)/C=C/CN(C)C)[nH]c2c1C(=O)NCC2` [compound 424], the concentration for half-maximal inhibition (IC50) was below 100 nM in experiment [1], below 100 nM against pEGFR in CUTO14 cells, 100 to 1000 nM at Ba/F3 cells with EGFR WT and below 100 nM in experiment [2].
On to `COc1c(Cl)cccc1Nc1c(-c2ccncc2OC[C@@]2(C)CCN2C(=O)/C=C/CN(C)C)[nH]c2c1C(=O)NCC2` [compound 425], for which the IC50 in experiment [1] is below 100 nM; on pEGFR in CUTO14 cells it was below 100 nM; on Ba/F3 cells with EGFR WT it was 100 to 1000 nM; in experiment [2] it was below 100 nM.
As to `CCc1c(F)cccc1Nc1c(-c2ccncc2OC[C@@]2(C)CCN2C(=O)/C=C/CN(C)C)[nH]c2c1C(=O)NCC2` [compound 426], the IC50 in experiment [1] was below 100 nM; at pEGFR in CUTO14 cells, below 100 nM; at Ba/F3 cells with EGFR WT it was 100 to 1000 nM; in experiment [2], below 100 nM.
On to `CCc1c(F)cccc1Nc1c(-c2ccncc2OC[C@]2(C)CCN2C(=O)/C=C/CN(C)C)[nH]c2c1C(=O)NCC2` [compound 427], for which the IC50 in experiment [1] is below 100 nM; at pEGFR in CUTO14 cells it was below 100 nM; at Ba/F3 cells with EGFR WT it was 100 to 1000 nM; in experiment [2], below 100 nM.
For `CC#CC(=O)N1CCOC[C@H]1COc1cnccc1-c1[nH]c2c(c1Nc1cccc(Cl)c1OC)C(=O)NCC2` [compound 429], the IC50 in experiment [1] is 100 to 1000 nM; against pEGFR in CUTO14 cells it was 100 to 1000 nM; at Ba/F3 cells with EGFR WT it was 100 to 1000 nM; in experiment [2], below 100 nM.
As for `C=CC(=O)N1CCC[C@]1(C)C#Cc1cnccc1-c1[nH]c2c(c1Nc1cc(F)cc(Cl)c1OC)C(=O)NCC2` [compound 430], the IC50 in experiment [1] was below 100 nM; at pEGFR in CUTO14 cells, below 100 nM; at Ba/F3 cells with EGFR WT, 100 to 1000 nM; in experiment [2], below 100 nM.
As to `CC#CC(=O)N1CCC[C@]1(C)C#Cc1cnccc1-c1[nH]c2c(c1Nc1cc(F)cc(Cl)c1OC)C(=O)NCC2` [compound 431], the IC50 is below 100 nM in experiment [1], below 100 nM against pEGFR in CUTO14 cells, 100 to 1000 nM on Ba/F3 cells with EGFR WT and below 100 nM in experiment [2].
Turning to `COc1c(Cl)cccc1Nc1c(-c2ccncc2C#C[C@@]2(C)CCCN2C(=O)C#CCN(C)C)[nH]c2c1C(=O)NCC2` [compound 433], the concentration for half-maximal inhibition (IC50) in experiment [1] was below 100 nM; on pEGFR in CUTO14 cells, below 100 nM; at Ba/F3 cells with EGFR WT, 100 to 1000 nM; in experiment [2], below 100 nM.
For the compound `COc1c(F)cccc1Nc1c(-c2ccncc2C#C[C@@]2(C)CCCN2C(=O)C#CCN(C)C)[nH]c2c1C(=O)NCC2` [compound 434], the IC50 in experiment [1] is below 100 nM; on pEGFR in CUTO14 cells it was below 100 nM; at Ba/F3 cells with EGFR WT it was 100 to 1000 nM; in experiment [2], below 100 nM.
In the case of `COc1c(Cl)cc(F)cc1Nc1c(-c2ccncc2C#C[C@@]2(C)CCCN2C(=O)/C=C/CN(C)C)[nH]c2c1C(=O)NCC2` [compound 435], the IC50 in experiment [1] is below 100 nM; against pEGFR in CUTO14 cells, below 100 nM; on Ba/F3 cells with EGFR WT, 100 to 1000 nM; in experiment [2] it was below 100 nM.
As for `COc1c(Cl)cccc1Nc1c(-c2ccncc2C#CC23CC(CN2C(=O)/C=C/CN(C)C)C3)[nH]c2c1C(=O)NCC2` [compound 436], the IC50 in experiment [1] is below 100 nM; on pEGFR in CUTO14 cells it was below 100 nM; on Ba/F3 cells with EGFR WT, 100 to 1000 nM; in experiment [2], below 100 nM.
In the case of `COc1c(F)cccc1Nc1c(-c2ccncc2C#CC23CC(CN2C(=O)/C=C/CN(C)C)C3)[nH]c2c1C(=O)NCC2` [compound 437], the IC50 is below 100 nM in experiment [1], below 100 nM against pEGFR in CUTO14 cells, 100 to 1000 nM at Ba/F3 cells with EGFR WT and below 100 nM in experiment [2].
For `C=CC(=O)NC1(C#Cc2cnccc2-c2[nH]c3c(c2Nc2cc(F)cc(Cl)c2OC)C(=O)NCC3)COC1` [compound 440], the IC50 was below 100 nM in experiment [1], below 100 nM on pEGFR in CUTO14 cells, 100 to 1000 nM on Ba/F3 cells with EGFR WT and below 100 nM in experiment [2].
As to `COc1c(F)cccc1Nc1c(-c2ccncc2C#C[C@@]2(C)CCCN2C(=O)/C=C/CN2CC(OC)C2)[nH]c2c1C(=O)NCC2` [compound 441], the IC50 in experiment [1] is below 100 nM; on pEGFR in CUTO14 cells, below 100 nM; at Ba/F3 cells with EGFR WT, 100 to 1000 nM; in experiment [2], below 100 nM.
Turning to `COc1c(F)cccc1Nc1c(-c2ccncc2C#C[C@@]2(C)CCCN2C(=O)/C=C/CN2CCOCC2)[nH]c2c1C(=O)NCC2` [compound 442], the IC50 in experiment [1] is 100 to 1000 nM; on pEGFR in CUTO14 cells it was 100 to 1000 nM; on Ba/F3 cells with EGFR WT it was above 1000 nM; in experiment [2], 100 to 1000 nM.
In the case of `COc1c(F)cccc1Nc1c(-c2ccncc2C#C[C@@]2(C)CCCN2C(=O)/C=C/CN2CC[C@H](OC)C2)[nH]c2c1C(=O)NCC2` [compound 443], the IC50 was below 100 nM in experiment [1], below 100 nM at pEGFR in CUTO14 cells, 100 to 1000 nM at Ba/F3 cells with EGFR WT and below 100 nM in experiment [2].
Take `COc1c(F)cccc1Nc1c(-c2ccncc2C#C[C@@]2(C)CCCN2C(=O)/C=C/CN2CC[C@@H](OC)C2)[nH]c2c1C(=O)NCC2` [compound 444]: the IC50 in experiment [1] was below 100 nM; at pEGFR in CUTO14 cells, below 100 nM; on Ba/F3 cells with EGFR WT, 100 to 1000 nM; in experiment [2], below 100 nM.
In the case of `COc1c(F)cccc1Nc1c(-c2ccncc2C#C[C@@]2(C)CCCN2C(=O)/C=C/CN2CC(F)(F)C2)[nH]c2c1C(=O)NCC2` [compound 445], the IC50 in experiment [1] was 100 to 1000 nM; on pEGFR in CUTO14 cells, 100 to 1000 nM; at Ba/F3 cells with EGFR WT, above 1000 nM; in experiment [2], 100 to 1000 nM.
As to `CC#CC(=O)N1CC[C@@H]1COc1cnccc1-c1[nH]c2c(c1Nc1cccc(C(F)F)c1OC)C(=O)NCC2` [compound 446], the IC50 in experiment [1] is below 100 nM; against pEGFR in CUTO14 cells, below 100 nM; at Ba/F3 cells with EGFR WT it was 100 to 1000 nM; in experiment [2], below 100 nM.
On to `C#CC(=O)N1CC[C@@H]1COc1cnccc1-c1[nH]c2c(c1Nc1cccc(Cl)c1OC)C(=O)NCC2` [compound 447], for which the IC50 in experiment [1] is below 100 nM; against pEGFR in CUTO14 cells it was below 100 nM; at Ba/F3 cells with EGFR WT, 100 to 1000 nM; in experiment [2], below 100 nM.
For the compound `C=CC(=O)NC(C)(C)COc1cnccc1-c1[nH]c2c(c1Nc1cccc(Cl)c1OC)C(=O)NCC2` [compound 448], the IC50 is below 100 nM in experiment [1], below 100 nM against pEGFR in CUTO14 cells, 100 to 1000 nM at Ba/F3 cells with EGFR WT and below 100 nM in experiment [2].
As to `Cc1c(F)cccc1Nc1c(-c2ccncc2C#CC(C)(C)NC(=O)/C=C/CN(C)C)[nH]c2c1C(=O)NCC2` [compound 449], the IC50 in experiment [1] was below 100 nM; at pEGFR in CUTO14 cells, below 100 nM; on Ba/F3 cells with EGFR WT, 100 to 1000 nM; in experiment [2] it was below 100 nM.
As to `Cc1c(F)cccc1Nc1c(-c2ccncc2C#C[C@@]2(C)CCCN2C(=O)/C=C/CN(C)C)[nH]c2c1C(=O)NCC2` [compound 450], the IC50 is below 100 nM in experiment [1], below 100 nM on pEGFR in CUTO14 cells, 100 to 1000 nM on Ba/F3 cells with EGFR WT and below 100 nM in experiment [2].
Regarding `Cc1c(F)cccc1Nc1c(-c2ccncc2C#CC23CC(CN2C(=O)/C=C/CN(C)C)C3)[nH]c2c1C(=O)NCC2` [compound 451], the concentration for half-maximal inhibition (IC50) in experiment [1] was below 100 nM; against pEGFR in CUTO14 cells, below 100 nM; on Ba/F3 cells with EGFR WT, 100 to 1000 nM; in experiment [2], below 100 nM.
On to `C=CC(=O)N1CC2CC1(C#Cc1cnccc1-c1[nH]c3c(c1Nc1cccc(F)c1C)C(=O)NCC3)C2` [compound 452], for which the IC50 is below 100 nM in experiment [1], below 100 nM at pEGFR in CUTO14 cells, 100 to 1000 nM at Ba/F3 cells with EGFR WT and below 100 nM in experiment [2].
